Measurements published in ChEMBL document CHEMBL1201862, “PubChem BioAssay data set” (2004).
The source made the active and inactive calls.

Legend:
[1] = viability of uninfected HEp-2 cells – cell-based, HTS, cytotoxicity control for RSV inhibitor project, dose response (AID 2410); assay type: functional; conditions: human respiratory syncytial virus
[2] = A Cell Based Secondary Assay To Explore Cytotoxicity of Compounds that Sensitize Mycobacterium Tuberculosis to Beta-Lactam Antibiotics.; assay type: functional
[3] = NIH3T3 cell viability loss – ATP luminescence, mouse fibroblasts, counter-screen, dose response (AID 2010); assay type: functional, cell-based;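 note: cells exposed to compound for about 90 hours before reading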
[4] = target: T1, Heat shock factor protein 1 (Mus musculus, UniProt P38532); assay: decrease of HSF1-responsive luciferase luminescence – cell-based, NIH3T3, dose retest, confirmation (AID 2382); assay type: functional;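 note: NIH3T3 fibroblasts with HSF1-driven luciferase reporter stressed by proteasome inhibitor MG132; luminescence from HSF1-driven luciferase expression after 8 hours of MG132 stress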
T1 sequence (P38532 whole entry): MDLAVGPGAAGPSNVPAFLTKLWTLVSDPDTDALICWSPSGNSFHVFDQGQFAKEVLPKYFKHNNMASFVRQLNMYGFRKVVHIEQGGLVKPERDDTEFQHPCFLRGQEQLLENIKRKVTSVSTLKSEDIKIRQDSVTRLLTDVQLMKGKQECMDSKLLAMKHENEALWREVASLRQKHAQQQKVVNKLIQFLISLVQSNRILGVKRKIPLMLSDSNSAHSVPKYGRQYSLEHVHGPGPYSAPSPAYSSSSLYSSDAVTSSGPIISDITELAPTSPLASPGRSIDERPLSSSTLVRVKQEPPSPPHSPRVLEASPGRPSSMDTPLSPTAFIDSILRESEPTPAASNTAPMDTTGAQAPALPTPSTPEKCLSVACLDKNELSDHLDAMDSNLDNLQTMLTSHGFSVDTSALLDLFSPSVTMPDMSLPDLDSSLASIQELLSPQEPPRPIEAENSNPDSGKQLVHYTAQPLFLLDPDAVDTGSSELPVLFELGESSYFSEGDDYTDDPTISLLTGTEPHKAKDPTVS

[5] = Trypanosoma cruzi growth suppression in host cells – NIH3T3 host cells, beta-gal luminescence, confirmation (AID 2044); assay type: functional, cell-based;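 note: intracellular parasites grown in NIH/3T3 mouse fibroblasts as host cells; luminescent beta-galactosidase reporter signal from transgenic T. cruzi replicating inside host cells; inhibitors lower the luminescence signal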
[6] = target: T2, Luciferin 4-monooxygenase (Photinus pyralis, UniProt P08659); assay: Counter Screen for Luciferase-based Assay Positives. [Related pubchem assays: 620, 618, 411 ]
T2 sequence (P08659 whole entry): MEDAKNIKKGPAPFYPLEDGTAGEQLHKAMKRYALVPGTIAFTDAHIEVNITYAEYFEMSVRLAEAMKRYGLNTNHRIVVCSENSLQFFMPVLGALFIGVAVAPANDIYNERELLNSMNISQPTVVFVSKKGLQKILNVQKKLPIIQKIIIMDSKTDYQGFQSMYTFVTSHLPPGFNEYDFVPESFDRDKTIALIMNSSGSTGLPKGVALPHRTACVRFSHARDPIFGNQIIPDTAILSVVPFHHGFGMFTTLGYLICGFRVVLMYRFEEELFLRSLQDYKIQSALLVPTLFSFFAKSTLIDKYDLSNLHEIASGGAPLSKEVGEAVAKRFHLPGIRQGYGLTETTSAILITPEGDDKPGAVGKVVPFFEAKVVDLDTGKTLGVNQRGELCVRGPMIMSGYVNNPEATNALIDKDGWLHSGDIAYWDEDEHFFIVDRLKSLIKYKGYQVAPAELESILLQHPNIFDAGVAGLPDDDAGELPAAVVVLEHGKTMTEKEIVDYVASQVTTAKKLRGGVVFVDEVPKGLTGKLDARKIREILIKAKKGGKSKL

[7] = target: FAD-linked sulfhydryl oxidase ALR (Homo sapiens, UniProt P55789); assay: ALR-catalysed DTT oxidation blockers – biochemical, H2O2 detection, luminescence, cherry-pick, dose response (AID 493248)
Chain of FAD-linked sulfhydryl oxidase ALR (P55789 whole entry): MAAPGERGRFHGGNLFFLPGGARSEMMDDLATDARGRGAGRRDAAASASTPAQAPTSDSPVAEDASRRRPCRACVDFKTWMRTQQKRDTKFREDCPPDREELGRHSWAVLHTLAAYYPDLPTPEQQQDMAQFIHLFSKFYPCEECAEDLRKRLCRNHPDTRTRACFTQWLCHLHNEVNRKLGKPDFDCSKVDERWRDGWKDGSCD

HT-1080 = assay: HT1080 cell viability loss – fluorescence readout (AID 620); assay type: functional, cell-based; conditions: Homo sapiens
Coagulation factor XII = target: T3, Coagulation factor XII (Homo sapiens, UniProt P00748); assay: activated coagulation factor XII inhibitor potency, concentration-effect curve, cell-free (AID 716); assay type: functional
T3 sequence (P00748 whole entry): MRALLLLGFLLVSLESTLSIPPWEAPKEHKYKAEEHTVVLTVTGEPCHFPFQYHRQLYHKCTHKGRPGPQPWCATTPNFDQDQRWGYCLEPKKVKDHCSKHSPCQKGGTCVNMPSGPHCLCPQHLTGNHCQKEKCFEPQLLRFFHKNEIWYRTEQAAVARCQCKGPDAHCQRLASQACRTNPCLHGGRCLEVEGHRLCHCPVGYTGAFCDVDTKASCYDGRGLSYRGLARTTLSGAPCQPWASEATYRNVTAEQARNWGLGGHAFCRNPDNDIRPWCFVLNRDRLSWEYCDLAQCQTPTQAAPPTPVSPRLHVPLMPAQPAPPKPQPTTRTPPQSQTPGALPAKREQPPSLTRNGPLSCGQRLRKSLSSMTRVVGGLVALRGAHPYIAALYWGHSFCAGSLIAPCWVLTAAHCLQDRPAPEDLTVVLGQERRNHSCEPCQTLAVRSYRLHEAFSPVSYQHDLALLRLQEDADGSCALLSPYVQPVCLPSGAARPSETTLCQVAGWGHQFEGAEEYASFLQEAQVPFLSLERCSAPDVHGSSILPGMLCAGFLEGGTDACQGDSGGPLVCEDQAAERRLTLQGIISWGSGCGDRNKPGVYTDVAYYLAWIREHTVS

[8] = target: Eukaryotic translation initiation factor 4E (Mus musculus, UniProt P63073); assay: blockers of eIF4G binding by eIF4E – biochemical, TR-FRET, dose response (AID 855); assay type: functional;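 note: potency for disrupting eIF4E binding to eIF4GI seen as loss of FRET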
Chain of Eukaryotic translation initiation factor 4E (P63073 whole entry): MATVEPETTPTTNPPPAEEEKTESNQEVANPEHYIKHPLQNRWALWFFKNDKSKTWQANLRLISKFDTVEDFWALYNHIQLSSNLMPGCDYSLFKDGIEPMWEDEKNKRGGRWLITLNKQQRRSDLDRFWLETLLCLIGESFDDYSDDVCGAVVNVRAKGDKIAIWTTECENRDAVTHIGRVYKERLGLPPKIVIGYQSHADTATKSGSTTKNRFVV

[9] = microbe, parasite or virus in culture; assay type: functional; conditions: Mycobacterium tuberculosis
[10] = target: G-protein coupled receptor 55 (Homo sapiens, UniProt Q9Y2T6); assay: inhibition of LPI-stimulated GPR55 beta-arrestin translocation – imaging, U2OS, beta-arrestin-GFP, LPI agonist, primary screen (AID 2013); assay type: functional;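 note: antagonist potency measured as reduced agonist-driven arrestin aggregation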
Chain of G-protein coupled receptor 55 (Q9Y2T6 whole entry): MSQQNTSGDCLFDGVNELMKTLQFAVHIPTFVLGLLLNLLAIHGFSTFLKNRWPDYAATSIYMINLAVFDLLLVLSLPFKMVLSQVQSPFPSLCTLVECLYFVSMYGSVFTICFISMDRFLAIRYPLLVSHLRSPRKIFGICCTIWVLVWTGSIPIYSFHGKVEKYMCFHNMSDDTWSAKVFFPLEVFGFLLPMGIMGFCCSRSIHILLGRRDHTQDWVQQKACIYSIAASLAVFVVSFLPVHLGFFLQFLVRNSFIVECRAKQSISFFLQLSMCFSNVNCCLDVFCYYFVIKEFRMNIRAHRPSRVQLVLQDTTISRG

[11] = target: T4, Calpain-2 catalytic subunit (Sus scrofa, UniProt P43367); assay: m-calpain protease blockers, concentration series – biochemical, fluorogenic peptide substrate, dose response (AID 1420); assay type: functional
T4 sequence (P43367 whole entry): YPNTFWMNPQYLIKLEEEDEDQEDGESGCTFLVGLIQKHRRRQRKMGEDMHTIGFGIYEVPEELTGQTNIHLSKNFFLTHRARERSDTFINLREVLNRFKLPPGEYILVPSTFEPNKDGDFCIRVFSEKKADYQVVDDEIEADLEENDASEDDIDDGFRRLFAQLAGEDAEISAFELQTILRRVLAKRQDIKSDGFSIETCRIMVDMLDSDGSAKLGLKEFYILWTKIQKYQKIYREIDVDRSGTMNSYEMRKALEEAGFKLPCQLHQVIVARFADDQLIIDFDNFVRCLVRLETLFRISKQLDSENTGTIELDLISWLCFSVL

[12] = viability loss in HEK293 cells – cell-based, plate reader, cherry-picked samples, cytotoxicity control, dose response (AID 743446); assay type: functional
[13] = Luminescence Cell-Based Dose Confirmation HTS to Identify Inhibitors of Platelet Dense Granule Release. [Related pubchem assays: 1663 (Primary HTS), 1678 (Summary of Project)]; assay type: functional
HeLa = assay: viability loss in HeLa cells – cell-based, 24 h, cherry-picked samples, cytotoxicity control, dose response (AID 504726); assay type: functional; conditions: Homo sapiens;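 note: potency for cytotoxicity as loss of luminescence signal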
[14] = target: T5, Microphthalmia-associated transcription factor (Homo sapiens, UniProt O75030); assay: reducers of TRPM1 reporter luminescence, concentration series – cell-based, SK-MEL-5, cherry-picked, set 3, MITF inhibitor project, dose response (AID 493073); assay type: functional;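 note: SK-MEL-5 melanoma cells with luciferase driven by the MITF target TRPM1 promoter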
T5 sequence (O75030 whole entry): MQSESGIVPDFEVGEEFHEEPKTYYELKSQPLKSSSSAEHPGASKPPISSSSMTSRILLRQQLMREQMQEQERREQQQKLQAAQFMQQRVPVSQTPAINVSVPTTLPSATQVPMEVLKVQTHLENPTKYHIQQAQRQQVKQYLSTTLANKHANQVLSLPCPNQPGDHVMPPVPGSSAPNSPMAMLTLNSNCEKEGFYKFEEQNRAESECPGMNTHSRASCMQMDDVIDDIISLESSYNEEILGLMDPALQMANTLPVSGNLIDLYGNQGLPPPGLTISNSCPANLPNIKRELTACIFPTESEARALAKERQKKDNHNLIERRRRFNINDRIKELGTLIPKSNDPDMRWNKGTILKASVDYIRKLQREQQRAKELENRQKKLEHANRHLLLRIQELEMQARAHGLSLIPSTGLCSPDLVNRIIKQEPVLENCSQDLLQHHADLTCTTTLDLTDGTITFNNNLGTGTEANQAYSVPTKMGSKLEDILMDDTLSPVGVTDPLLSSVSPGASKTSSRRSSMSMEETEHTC

[15] = non-specific 3'UTR reporter inhibition in Clone20-Shn3RL – cell-based, Renilla luciferase, cherry-picked, counter-screen for Shn3 inhibitor project, dose response (AID 624133); assay type: functional
A-375 = assay: proliferation inhibition in MITF-low A375 cells – cell-based, cherry-pick samples, set 2, counter-screen for MITF modulator project, dose response (AID 540335); assay type: functional; conditions: Homo sapiens
[16] = target: T2, Luciferin 4-monooxygenase; assay: inhibition of purified Photinus pyralis luciferase – biochemical, luminescence, dose response (AID 1891)
[17] = reduction of Shn3 3'UTR-driven luciferase in osteoblasts – cell-based, Clone20 osteoblasts, firefly luciferase, cherry-picked, dose response (AID 624132); assay type: functional;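 note: firefly luciferase luminescence from reporter carrying the Shn3 3'UTR in osteoblasts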
[18] = loss of viability in HepG2 cells – cell-based, CellTiter-Glo, cherry-picked, cytotoxicity control for Shn3 inhibitor project, dose response (AID 624134); assay type: functional
[19] = blockade of melanocortin 4 receptor signaling – cell-based, plate reader, cherry pick, counter-screen for LGR2 antagonist project, dose response (AID 743444); assay type: functional;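 note: transfected HEK 293 cells stimulated with alpha-MSH peptide; potency of inhibitors of the alpha-MSH evoked signal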
[20] = A549 cell cytotoxicity, dose response, cytotoxicity control, plate reader, cherry-pick, antagonist series (AID 743412); assay type: functional, cell-based
[21] = blockers of bursicon-stimulated LGR2 cAMP reporter – cell-based, HEK293, CRE-luciferase reporter, cherry pick, set 2, dose response (AID 743343); assay type: functional;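 note: transfected cells were stimulated with diluted bursicon conditioned medium after compound addition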

Compound: CC(Nc1ccccc1N1CCCCC1)C(=O)N1CCc2ccccc21 (centres undefined)
- IC50 (cells): 15.4 µM (active)
- CC50 [1]: > 50 µM (active)

Compound: O=C(C1=C[C@H](c2ccc(Br)cc2)C[C@H](OCCCCO)O1)N1CCN(Cc2ccc3c(c2)OCO3)CC1
- CC50 [2]: > 40 µM (active)
- EC50 [3]: > 60 µM (not active)
- EC50 [4]: > 195 µM (not active)
- EC50 [5]: 0.346 µM (active)

Compound: Clc1c(CSc2nc3ccccc3o2)nc2ccccn12
- EC50 [6]: 9.33 µM (active)
- AC50 [7]: 7.37 µM (active)
- EC50 (HT-1080): > 50 µM (not active)

Compound: CC(=O)c1c(C)nn(CC(O)COc2ccc3c(c2)CCC3)c1C (centres undefined)
- IC50 (Coagulation factor XII): > 50 µM (inactive)

Compound: CCOC(=O)N1CCN(C(=O)C2CC(c3ccc(F)cc3)=NO2)CC1 (centres undefined)
- IC50 (Coagulation factor XII): > 50 µM (inactive)

Compound: CCCCOCCCn1c(-c2ccco2)nc2nc3ccccc3nc21
- IC50 [8]: > 64 µM (inactive)
- CC50 [9]: > 40 µM (active)

Compound: c1ccc(CCNc2ncnc3scc(C4COc5ccccc5O4)c23)cc1 (centres undefined)
- IC50 [10]: 3.59 µM (active)
- IC50 [11]: 10.4 µM (not active)

Compound: O=C1CC(N2CCN(Cc3ccc4c(c3)OCO4)CC2)C(=O)N1c1cccc(Cl)c1 (centres undefined)
- IC50 [8]: > 64 µM (inactive)

Compound: COc1cc(SC)ccc1C(=O)Nc1nc(C)cs1
- AC50 [12]: 24.9 µM (active)
- EC50 [13]: 7.22 µM (active)
- AC50 (HeLa): 42.3 µM (active)
- AC50 [14]: 4.81 µM (active)
- AC50 [15]: 35.2 µM (active)
- AC50 (A-375): 47.4 µM (active)
- EC50 [16]: 0.511 µM (active)
- AC50 [17]: 7.09 µM (active)
- AC50 [18]: > 70 µM (inactive)
- AC50 [19]: 0.491 µM (active)
- EC50 [4]: 0.845 µM (active)
- AC50 [20]: 43.9 µM (active)
- AC50 [21]: 0.49 µM (active)
